Data taken from patent US5179109A (priority 1988, dated 1993).
Like-named read-outs stand apart in the source and are kept apart here.

Assays:
[1] = tested on: Swiss mice; experiment: Simple rotary bar test (dose at which 50% of the animals drop); assay type: in vivo; conditions: for ED50: Mus musculus, sc
Description: In this example, the properties of compounds 1 to 5 and 8 to 11 are tested on Swiss mice.
Different doses of the compounds to be tested are administered subcutaneously to the mice and the latter are then placed in batches of 10 on a rotary bar, being separated from one another by separating disks. This bar is made from scraped wood, has a diameter of 3 cm and is moved horizontally with a uniform circular movement about its axis at a speed of 10 rpm.
Determination takes place of the ED50, which is the dose at which 50% of the animals drop, the dose being expressed in mg/kg.

[2] = tested on: site of PCP; experiment: Affinity for the PCP site, competition with (^3 H)PCP on rat brain homogenates; assay type: binding; conditions: rat brain homogenate, pH 7.7, 25° C., 1 nmole tritiated ligand
[3] = target: cerebral cholinergic muscarinic receptor; assay type: binding, rat; conditions: for IC50: rat brain homogenate, read-out: ^3 HQNB IC50; for ^3 HQNB/^3 HTCP: ratio of IC50
[4] = tested on: cortical and hippocampal neurons; experiment: In vitro neuron culture survival after 2 months, count of neurons (Example 23); assay type: cell-based, rat; conditions: single dose at start of third week; TCP 2.5 and 20, compound 9 and MK801 2.5 and 5 μmole/l; control 50 neurons/mm^2
Description: This example also illustrates the effect of the arylcyclohexylamines according to the invention on the in vitro neuron culture survival. As in example 21, cortical and hippocampal neuron cultures are prepared. At the start of the third culturing week, the cells are treated with a single dose of the compound to be tested and culturing is continued for two months. At the end of this period, the cells which were fixed and dyed to reveal the specific enolase of the neurons are subject to counts in order to determine the quantity of cells per surface unit.
The results obtained are given in FIG. 1, which is a histogram indicating the number of cells/mm^2 which survived after 2 months culturing.
The results are given for the control, i.e. for untreated cultures, cultures treated with 2.5 and 20 μmole/l of TCP, cultures treated by compound no. 9 at concentrations of 2.5 and 5 μmole/l and cultures treated by compound MK801 at concentrations of 2.5 and 5 μmole/l. Compound MK801, which is known to have a neuroprotection activity, is (+)-methyl-5-dihydro-10,11(5H)dibenzo(A,D) cyclohepteneimine-5,10 of formula: [drawing 38] From FIG. 1 it can be seen that the control cultures, after surviving for 2 months, on average contain 50 neurons/mm^2. The treated cultures, no matter what the compound and dose used, contain more than 500 neurons/mm^2.

[5] = target: T1, receptor of the opiates (Rattus norvegicus, UniProt P33535); experiment: Competition test with ^3 H-DHM for the receptor of the opiates; assay type: binding
T1 construct: variable concentrations of the tested compound and a rat brain homogenate; from tissue; host or cells: rat brain homogenate
T1 sequence (P33535 whole entry): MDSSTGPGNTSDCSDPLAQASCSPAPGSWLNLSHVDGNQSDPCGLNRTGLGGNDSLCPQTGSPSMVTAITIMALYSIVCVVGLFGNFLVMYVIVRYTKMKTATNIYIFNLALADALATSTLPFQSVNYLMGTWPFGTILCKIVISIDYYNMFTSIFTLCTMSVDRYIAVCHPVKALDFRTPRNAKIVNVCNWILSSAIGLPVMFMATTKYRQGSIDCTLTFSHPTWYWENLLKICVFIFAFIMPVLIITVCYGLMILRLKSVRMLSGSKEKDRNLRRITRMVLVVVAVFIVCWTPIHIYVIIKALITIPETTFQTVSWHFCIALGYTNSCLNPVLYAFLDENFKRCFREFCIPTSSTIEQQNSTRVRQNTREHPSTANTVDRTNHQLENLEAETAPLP
Description: In this test, a fixed concentration of ^3 H-DHM labelled morphine was incubated in the presence of variable concentrations of the tested compound and a rat brain homogenate. The concentration of the compound preventing the fixing of 50% of ^3 H-DHM (IC50) is a measure of the affinity of the compound for the receptor of the opiates. The latter also gives the results obtained with PCP and TCP, as well as the ratios H^3 DA/^3 H-TCP, ^3 HQNB/^3 H-TCP and ^3 HDHM/^3 HTCP obtained with the different tested compounds.

[6] = tested on: synaptosomal striatal (^3 H)DA capture; experiment: Inhibition test of the synaptosomal striatal sample (capture) of (^3 H)DA; assay type: biochemical, Wistar rats; conditions: for IC50: rat striatal synaptosomes, 5 nM (^3 H)DA, 5 min at 30° C., pH 7.4, read-out: ^3 HDA IC50; for ^3 HDA/^3 H-TCP: ratio of IC50
Description: This test is carried out according to the method used by Vignon and Lazdunski operating in the following way. Wistar rats weighing 200 to 250 g are killed by cervical dislocation. Their brains are rapidly removed and the striae dissected on ice. The striae are then homogenized with a Teflon glass Potter homogenizer in 50 volumes of tris HCl 10 mM buffer containing 0.32M of sucrose at pH 7.4 and they are centrifuged at 1000 g for 10 min. The supernatants are further centrifuged at 10000 g for 20 min. The resulting deposits P2 containing the crude synaptosomes are used without supplementary purification.
The synaptosomes are balanced with the compound to be tested for 30 min at 30° C. in the Ringer medium (mM: 140 NaCl, 5 KCl, 2.6 CaCl2, 1.3 MgSO4, 10 tris-HCl, pH=7.4)+200 μM of pargyline. This is followed by the addition of (^3 H)DA labelled dopamine at a final concentration of 5 nM for 5 min at 30° C. and sampling is interrupted by filtration of the incubate (150 μl) on GF/B filters. The non-specific sample is measured at 4° C. in parallel incubations and is deducted from the total sample at 30° C. The IC50 is the compound concentration preventing 50% of the specific capture compared with the control in the absence of an inhibitor.

[7] = tested on: site of TCP; experiment: Affinity for the TCP site, competition with (^3 H)TCP on rat brain homogenates; assay type: binding; conditions: rat brain homogenate, pH 7.7, 25° C., 1 nmole tritiated ligand; read-out: ^3 HTCP IC50
[8] = Swiss mice, subcutaneous, dose at which 50% of the animals drop, read-out: ED50

`O[C@H]1CCCC[C@]1(c1ccccc1)N1CCCCC1` (relative stereo) [compound 11, t-hydroxy-2 phenyl-1-r-(piperidino-1)-1 cyclohexane] gave an ED50 [1, 8] of 17 mg/kg, an IC50 [2] of 1.17 µM and an IC50 [3] of 125 µM. For the same molecule, the “^3 HQNB/^3 HTCP” value [3] was 106.8.
`C[C@]12N[C@H](Cc3ccccc31)c1ccccc12` [MK801, (+)-methyl-5-dihydro-10,11(5H)dibenzo(A,D) cyclohepteneimine-5,10, reference compound] was tested, and the “number of neurons which survived after 2 months culturing” value [4] was “more than 500 neurons/mm^2”.
With `c1ccc(C2(N3CCCCC3)CCCCC2)cc1` [PCP, 1-(1-phenylcyclohexyl)-piperidine, reference compound] the ED50 [1] was 4 mg/kg, the IC50 [5] was 26 µM and the “^3 HDHM/^3 HTCP” value ([5]; ratio of IC50) was 130. For the same molecule, the IC50 [6] was 0.5 µM, the “^3 HDA/^3 H-TCP” value [6] was 2.5 and the IC50 [2] was 0.25 µM. The IC50 [7] was 0.2 µM, the IC50 [3] was 30 µM and the “^3 HQNB/^3 HTCP” value [3] was 150.
For `CC1CCN(C2(c3ccccc3)CCCCC2)CC1` [compound 1, ((methyl-4 piperidino)-1)-1 phenyl-1 cyclohexane], the ED50 [1, 8] was 20 mg/kg, the IC50 [6] was 5 µM and the “^3 HDA/^3 H-TCP” value [6] was 125. It also gave an IC50 [2] of 0.4 µM.
In the case of `C[C@H]1CC[C@@](c2cccs2)(N2CCCC(CO)C2)CC1` (stereo partly shown) [compound 5, r-(hydroxymethyl-3-piperidino)-1-c-methyl-4 (thienyl-2)-1 cyclohexane], the ED50 [1, 8] is reported as 8 mg/kg, the IC50 [2] is reported as 0.38 µM and the IC50 [3] is reported as 110 µM. The “^3 HQNB/^3 HTCP” value [3] was 289.
`CC(=O)OCC1CCCN(C2(c3ccccc3)CCCCC2)C1` (stereo not shown) [compound 6, acetate of ((hydroxymethyl-3-piperidino)-1)-1 phenyl-1 cyclohexane] was tested, and the IC50 [2] was 1.1 µM, the IC50 [3] was 140 µM and the “^3 HQNB/^3 HTCP” value [3] was 127.
With `C[C@H]1CC[C@@](c2cccc(F)c2)(N2CCCC(CO)C2)CC1` (stereo partly shown) [compound 7, ((fluoro-3 phenyl)-1)-r-((hydroxymethyl-3 piperidino)-1)-1-c-methyl-4 cyclohexane] the IC50 [2] was 4.5 µM, the IC50 [3] was 760 µM and the “^3 HQNB/^3 HTCP” value [3] was 168.
`ClCC1CCCN(C2(c3cccs3)CCCCC2)C1` (stereo not shown) [compound 8, [(chloromethyl-3 piperidino)-1]-1 (thienyl-2)-1 cyclohexane] was tested, and the ED50 [1, 8] was 150 mg/kg, the “rotary bar activity, in words” value ([1]; Swiss mice, subcutaneous) was “low activity compared with the other compounds” and the IC50 [2] was 0.56 µM. For the same molecule, the IC50 [3] was 870 µM and the “^3 HQNB/^3 HTCP” value [3] was 1553.
For `C[C@H]1CC[C@](c2cccs2)(N2CCCCC2)CC1` [compound 10], the ED50 [1, 8] was 19 mg/kg, the IC50 [6] was 3.6 µM and the “^3 HDA/^3 H-TCP” value [6] was 105. It also gave an IC50 [2] of 0.14 µM, an IC50 [7] of 0.034 µM and an IC50 [3] of 29.3 µM. For the same molecule, the “^3 HQNB/^3 HTCP” value [3] was 862.
